{
  "source": "paper PMC4979471",
  "about": "(Cell Death Discovery, 2015)",
  "key": {"[1]": {"system": "primary mouse bone marrow-derived macrophages (BMDMs)", "assay": "TNF+zVAD-induced necroptosis, CellTiter-Glo", "format": "cell-based", "conditions": "BMDM, read-out: IC50 blocking necroptosis", "experimental": "Mouse fibrosarcoma L929 cells (ATCC# CCL-1) and human monocytic U937 cells (ATCC# CRL-1593.2) were cultured in RPMI media supplemented with 10% heat-inactivated FBS, 100 U/ml penicillin and […] streptomycin. BMDM were prepared from C57BL/6 mice by differentiation with 10 ng/ml M-CSF (R&D Systems) for 7 days and cultured in DMEM medium supplemented with 10% heat-inactivated FBS, 100 U/ml penicillin, 100 μg/ml streptomycin and 0.25 μg/ml amphotericin. Primary human neutrophils were isolated from human blood following the standard method comprised of sequential sedimentation in dextran, density centrifugation in Ficoll–Hypaque and lysis of contaminating red blood cells.\nNecroptotic cell death was induced in BMDM, L929 and U937 cells with TNF in the presence of caspase inhibitor zVAD-FMK or QVD-Oph (BMDM: 50 ng/ml TNF+50 μM zVAD; L929: 100 ng/ml TNF+50 μM QVD; U937: 100 ng/ml TNF+25 μM QVD). To evaluate the effect of RIP1 inhibitors, cells were pretreated with compound (dose–response) for 30 min. Induced cell death was evaluated 19–21 h later by measuring cellular ATP levels using CellTiter-Glo Luminescent Cell Viability assay (Promega, Fitchburg, WI, USA). To induce necroptosis in neutrophils, freshly isolated human neutrophils were stimulated with TNF (10 ng/ml), QVD-Oph (50 μM) and SMAC mimetic (100 nM). Induced cell death was evaluated as above."}, "ALK": {"target": "T1, ALK (Homo sapiens, UniProt Q9UM73)", "T1 construct": "purchased Reaction Biology Corp", "T1 sequence (Q9UM73 19-1620)": "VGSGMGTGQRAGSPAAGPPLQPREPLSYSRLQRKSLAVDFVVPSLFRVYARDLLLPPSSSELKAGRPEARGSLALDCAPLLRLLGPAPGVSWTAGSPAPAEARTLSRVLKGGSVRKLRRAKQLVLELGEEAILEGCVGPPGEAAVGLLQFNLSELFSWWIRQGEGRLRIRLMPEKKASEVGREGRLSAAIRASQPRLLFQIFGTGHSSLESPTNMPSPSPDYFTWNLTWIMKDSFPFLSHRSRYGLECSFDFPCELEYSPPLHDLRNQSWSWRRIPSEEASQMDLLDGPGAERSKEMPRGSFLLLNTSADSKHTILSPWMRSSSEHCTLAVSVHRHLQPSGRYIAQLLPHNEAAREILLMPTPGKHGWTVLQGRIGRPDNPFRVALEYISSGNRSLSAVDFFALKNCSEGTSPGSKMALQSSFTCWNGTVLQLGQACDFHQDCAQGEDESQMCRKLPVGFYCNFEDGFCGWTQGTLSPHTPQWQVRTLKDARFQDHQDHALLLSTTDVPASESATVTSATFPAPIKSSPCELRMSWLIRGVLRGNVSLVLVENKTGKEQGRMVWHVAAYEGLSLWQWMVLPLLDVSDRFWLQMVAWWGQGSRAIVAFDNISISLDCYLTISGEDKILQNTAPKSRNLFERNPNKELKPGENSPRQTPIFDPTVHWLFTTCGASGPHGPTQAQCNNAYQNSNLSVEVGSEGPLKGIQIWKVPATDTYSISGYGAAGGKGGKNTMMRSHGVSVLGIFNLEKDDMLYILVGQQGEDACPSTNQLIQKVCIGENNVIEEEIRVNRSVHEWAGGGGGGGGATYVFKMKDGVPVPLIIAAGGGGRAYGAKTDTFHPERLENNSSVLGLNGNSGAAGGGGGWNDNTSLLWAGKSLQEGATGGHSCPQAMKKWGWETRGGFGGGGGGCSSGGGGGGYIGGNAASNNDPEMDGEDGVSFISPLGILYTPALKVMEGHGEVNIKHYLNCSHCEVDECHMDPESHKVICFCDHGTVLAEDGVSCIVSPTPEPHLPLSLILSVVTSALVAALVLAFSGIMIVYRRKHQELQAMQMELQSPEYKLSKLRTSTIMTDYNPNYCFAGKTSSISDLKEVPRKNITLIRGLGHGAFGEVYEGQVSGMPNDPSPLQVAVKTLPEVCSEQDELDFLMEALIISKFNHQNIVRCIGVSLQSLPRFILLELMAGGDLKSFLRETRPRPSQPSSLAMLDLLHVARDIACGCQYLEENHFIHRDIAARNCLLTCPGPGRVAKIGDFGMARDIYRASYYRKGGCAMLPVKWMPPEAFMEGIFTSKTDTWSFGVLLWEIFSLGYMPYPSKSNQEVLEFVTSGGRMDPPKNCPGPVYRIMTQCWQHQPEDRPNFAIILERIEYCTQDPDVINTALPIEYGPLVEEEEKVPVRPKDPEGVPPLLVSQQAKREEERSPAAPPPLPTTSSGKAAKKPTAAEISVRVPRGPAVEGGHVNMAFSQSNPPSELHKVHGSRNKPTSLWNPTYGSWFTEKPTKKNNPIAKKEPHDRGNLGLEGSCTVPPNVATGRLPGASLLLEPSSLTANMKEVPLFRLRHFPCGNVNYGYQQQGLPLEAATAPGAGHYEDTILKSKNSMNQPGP", "assay": "Kinase selectivity, P33-radiolabeled assay", "format": "biochemical", "conditions": "10 μM ATP", "experimental": "(§1) The compound was tested at a single dose in duplicate at 10 μM. Reactions were carried out at 10 μM ATP. Data are reported as % enzyme activity (relative to DMSO controls). The full data set is shown in the Supplementary Table I."}, "CAMK1a": {"target": "T2, CAMK1a (Homo sapiens, UniProt Q14012)", "T2 construct": "purchased Reaction Biology Corp", "T2 sequence (Q14012 whole entry)": "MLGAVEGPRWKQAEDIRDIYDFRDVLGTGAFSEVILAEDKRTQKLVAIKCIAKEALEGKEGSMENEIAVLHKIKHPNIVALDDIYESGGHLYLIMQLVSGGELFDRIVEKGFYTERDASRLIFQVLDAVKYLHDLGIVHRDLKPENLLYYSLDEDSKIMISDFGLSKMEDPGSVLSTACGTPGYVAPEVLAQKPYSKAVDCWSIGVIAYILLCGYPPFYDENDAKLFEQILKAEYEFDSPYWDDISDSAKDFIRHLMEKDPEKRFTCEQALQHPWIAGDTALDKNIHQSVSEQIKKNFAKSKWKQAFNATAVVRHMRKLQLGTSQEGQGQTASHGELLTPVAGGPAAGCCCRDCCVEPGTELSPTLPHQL", "assay": "Kinase selectivity, P33-radiolabeled assay", "format": "biochemical", "conditions": "10 μM ATP", "experimental": "as §1"}, "CK1epsilon": {"target": "T3, CK1epsilon (Homo sapiens, UniProt P49674)", "T3 construct": "purchased Reaction Biology Corp", "T3 sequence (P49674 whole entry)": "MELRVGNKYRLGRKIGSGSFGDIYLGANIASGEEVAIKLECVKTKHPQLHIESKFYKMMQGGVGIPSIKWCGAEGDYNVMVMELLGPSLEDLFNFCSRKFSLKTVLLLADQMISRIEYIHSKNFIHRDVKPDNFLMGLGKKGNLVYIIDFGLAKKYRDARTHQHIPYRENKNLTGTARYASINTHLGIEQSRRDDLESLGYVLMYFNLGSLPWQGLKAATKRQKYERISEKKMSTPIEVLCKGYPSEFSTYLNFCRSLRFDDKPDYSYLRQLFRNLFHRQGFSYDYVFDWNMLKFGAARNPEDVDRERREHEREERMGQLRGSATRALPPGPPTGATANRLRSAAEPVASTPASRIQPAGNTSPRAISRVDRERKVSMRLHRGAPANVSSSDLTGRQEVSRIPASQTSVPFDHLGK", "assay": "Kinase selectivity, P33-radiolabeled assay", "format": "biochemical", "conditions": "10 μM ATP", "experimental": "as §1"}, "CLK4": {"target": "T4, CLK4 (Homo sapiens, UniProt Q9HAZ1)", "T4 construct": "purchased Reaction Biology Corp", "T4 sequence (Q9HAZ1 whole entry)": "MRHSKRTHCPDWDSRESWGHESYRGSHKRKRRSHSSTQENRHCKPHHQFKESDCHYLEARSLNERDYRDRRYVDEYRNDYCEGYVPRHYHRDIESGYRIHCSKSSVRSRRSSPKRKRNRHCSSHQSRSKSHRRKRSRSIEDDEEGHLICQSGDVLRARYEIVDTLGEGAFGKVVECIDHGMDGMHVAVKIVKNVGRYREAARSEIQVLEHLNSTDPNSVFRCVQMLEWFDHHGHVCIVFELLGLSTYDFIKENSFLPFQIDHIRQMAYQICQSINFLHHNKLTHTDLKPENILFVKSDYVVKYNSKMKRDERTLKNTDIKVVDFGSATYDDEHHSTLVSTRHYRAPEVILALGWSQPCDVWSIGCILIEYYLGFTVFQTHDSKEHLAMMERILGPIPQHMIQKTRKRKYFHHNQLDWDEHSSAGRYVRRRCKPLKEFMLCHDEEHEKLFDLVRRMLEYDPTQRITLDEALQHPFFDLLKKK", "assay": "Kinase selectivity, P33-radiolabeled assay", "format": "biochemical", "conditions": "10 μM ATP", "experimental": "as §1"}, "FGFR3": {"target": "T5, FGFR3 (Homo sapiens, UniProt P22607)", "T5 construct": "purchased Reaction Biology Corp", "T5 sequence (P22607 23-806)": "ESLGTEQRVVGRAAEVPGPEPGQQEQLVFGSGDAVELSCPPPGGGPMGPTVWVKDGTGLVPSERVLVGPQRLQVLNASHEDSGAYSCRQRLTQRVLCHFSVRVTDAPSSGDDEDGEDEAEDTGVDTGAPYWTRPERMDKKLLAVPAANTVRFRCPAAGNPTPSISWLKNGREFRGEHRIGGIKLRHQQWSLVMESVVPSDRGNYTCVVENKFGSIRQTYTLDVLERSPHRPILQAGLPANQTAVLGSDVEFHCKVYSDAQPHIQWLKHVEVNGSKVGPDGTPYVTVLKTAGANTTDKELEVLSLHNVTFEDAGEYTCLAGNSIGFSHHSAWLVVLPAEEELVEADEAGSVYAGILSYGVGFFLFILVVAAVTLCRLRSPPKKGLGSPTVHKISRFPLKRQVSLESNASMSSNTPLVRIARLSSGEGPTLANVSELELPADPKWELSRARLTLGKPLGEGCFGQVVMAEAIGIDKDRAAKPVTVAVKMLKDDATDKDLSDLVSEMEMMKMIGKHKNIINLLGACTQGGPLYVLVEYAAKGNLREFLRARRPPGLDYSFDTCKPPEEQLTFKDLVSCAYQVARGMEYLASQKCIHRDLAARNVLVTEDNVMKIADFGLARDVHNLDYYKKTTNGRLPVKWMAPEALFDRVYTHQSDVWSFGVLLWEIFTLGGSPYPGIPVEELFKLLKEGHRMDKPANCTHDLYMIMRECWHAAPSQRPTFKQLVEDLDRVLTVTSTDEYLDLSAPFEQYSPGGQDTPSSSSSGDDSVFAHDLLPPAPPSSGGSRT", "assay": "Kinase selectivity, P33-radiolabeled assay", "format": "biochemical", "conditions": "10 μM ATP", "experimental": "as §1"}, "MEK2": {"target": "T6, MEK2 (Homo sapiens, UniProt P36507)", "T6 construct": "purchased Reaction Biology Corp", "T6 sequence (P36507 whole entry)": "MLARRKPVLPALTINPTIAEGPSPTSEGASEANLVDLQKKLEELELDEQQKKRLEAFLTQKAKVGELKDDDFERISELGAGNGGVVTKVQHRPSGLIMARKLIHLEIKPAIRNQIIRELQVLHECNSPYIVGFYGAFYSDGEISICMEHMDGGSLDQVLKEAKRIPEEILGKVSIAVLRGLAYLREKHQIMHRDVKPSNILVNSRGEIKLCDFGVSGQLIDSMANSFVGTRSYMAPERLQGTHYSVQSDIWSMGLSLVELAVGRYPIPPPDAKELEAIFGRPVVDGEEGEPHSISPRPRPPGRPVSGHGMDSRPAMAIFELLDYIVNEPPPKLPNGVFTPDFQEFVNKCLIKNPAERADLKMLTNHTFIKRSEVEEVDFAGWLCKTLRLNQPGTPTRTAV", "assay": "Kinase selectivity, P33-radiolabeled assay", "format": "biochemical", "experimental": "as §1"}, "NEK2": {"target": "T7, NEK2 (Homo sapiens, UniProt P51955)", "T7 construct": "purchased Reaction Biology Corp", "T7 sequence (P51955 1-445)": "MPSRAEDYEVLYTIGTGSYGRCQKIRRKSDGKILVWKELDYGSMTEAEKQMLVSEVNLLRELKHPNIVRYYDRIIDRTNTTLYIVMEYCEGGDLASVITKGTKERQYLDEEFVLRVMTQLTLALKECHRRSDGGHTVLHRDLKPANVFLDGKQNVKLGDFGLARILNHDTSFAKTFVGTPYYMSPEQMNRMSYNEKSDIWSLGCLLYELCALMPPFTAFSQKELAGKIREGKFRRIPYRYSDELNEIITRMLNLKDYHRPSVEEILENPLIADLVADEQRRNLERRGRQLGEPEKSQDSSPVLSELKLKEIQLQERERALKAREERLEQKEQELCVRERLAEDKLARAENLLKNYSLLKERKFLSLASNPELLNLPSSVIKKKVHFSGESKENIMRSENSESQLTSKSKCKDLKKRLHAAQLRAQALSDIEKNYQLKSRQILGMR", "assay": "Kinase selectivity, P33-radiolabeled assay", "format": "biochemical", "conditions": "10 μM ATP", "experimental": "as §1"}, "PAK5": {"target": "T8, PAK5 (Homo sapiens, UniProt Q9P286)", "T8 construct": "purchased Reaction Biology Corp", "assay": "Kinase selectivity, P33-radiolabeled assay", "format": "biochemical", "conditions": "10 μM ATP", "experimental": "as §1"}, "PDK1/PDPK1": {"target": "T9, PDK1/PDPK1 (Homo sapiens, UniProt O15530)", "T9 construct": "purchased Reaction Biology Corp", "T9 sequence (O15530 1-556)": "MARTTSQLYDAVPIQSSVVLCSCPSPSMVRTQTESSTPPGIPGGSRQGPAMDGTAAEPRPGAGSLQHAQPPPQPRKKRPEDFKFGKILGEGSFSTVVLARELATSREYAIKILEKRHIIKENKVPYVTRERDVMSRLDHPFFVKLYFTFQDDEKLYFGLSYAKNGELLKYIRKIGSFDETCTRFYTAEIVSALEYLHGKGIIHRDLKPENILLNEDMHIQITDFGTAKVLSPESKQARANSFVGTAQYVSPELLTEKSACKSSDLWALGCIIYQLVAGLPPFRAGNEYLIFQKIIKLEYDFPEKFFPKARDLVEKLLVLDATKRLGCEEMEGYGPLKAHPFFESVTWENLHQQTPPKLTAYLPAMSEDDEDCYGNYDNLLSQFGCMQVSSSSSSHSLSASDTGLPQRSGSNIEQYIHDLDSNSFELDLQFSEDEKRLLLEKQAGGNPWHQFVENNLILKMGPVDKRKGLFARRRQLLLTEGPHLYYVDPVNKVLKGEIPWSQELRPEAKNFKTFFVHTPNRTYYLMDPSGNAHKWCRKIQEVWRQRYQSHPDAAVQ", "assay": "Kinase selectivity, P33-radiolabeled assay", "format": "biochemical", "conditions": "10 μM ATP", "experimental": "as §1"}, "ROS/ROS1": {"target": "T10, ROS/ROS1 (Homo sapiens, UniProt P08922)", "T10 construct": "purchased Reaction Biology Corp", "assay": "Kinase selectivity, P33-radiolabeled assay", "format": "biochemical", "experimental": "as §1"}, "STK33": {"target": "T11, STK33 (Homo sapiens, UniProt Q9BYT3)", "T11 construct": "purchased Reaction Biology Corp", "T11 sequence (Q9BYT3 whole entry)": "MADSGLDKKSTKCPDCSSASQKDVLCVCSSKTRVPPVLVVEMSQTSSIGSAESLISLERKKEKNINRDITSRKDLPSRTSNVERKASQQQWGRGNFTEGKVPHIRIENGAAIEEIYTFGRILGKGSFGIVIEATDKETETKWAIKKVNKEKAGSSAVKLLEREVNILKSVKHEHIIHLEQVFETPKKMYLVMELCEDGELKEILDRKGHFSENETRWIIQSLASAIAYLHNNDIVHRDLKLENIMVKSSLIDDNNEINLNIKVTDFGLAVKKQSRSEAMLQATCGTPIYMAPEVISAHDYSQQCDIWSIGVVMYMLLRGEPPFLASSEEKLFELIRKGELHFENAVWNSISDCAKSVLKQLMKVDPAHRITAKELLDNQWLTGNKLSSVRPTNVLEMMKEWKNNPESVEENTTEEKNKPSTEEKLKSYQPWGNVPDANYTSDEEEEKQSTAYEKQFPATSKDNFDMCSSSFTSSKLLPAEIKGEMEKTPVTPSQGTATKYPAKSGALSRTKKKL", "assay": "Kinase selectivity, P33-radiolabeled assay", "format": "biochemical", "conditions": "10 μM ATP", "experimental": "as §1"}, "ZIPK/DAPK3": {"target": "T12, ZIPK/DAPK3 (Homo sapiens, UniProt O43293)", "T12 construct": "purchased Reaction Biology Corp", "T12 sequence (O43293 whole entry)": "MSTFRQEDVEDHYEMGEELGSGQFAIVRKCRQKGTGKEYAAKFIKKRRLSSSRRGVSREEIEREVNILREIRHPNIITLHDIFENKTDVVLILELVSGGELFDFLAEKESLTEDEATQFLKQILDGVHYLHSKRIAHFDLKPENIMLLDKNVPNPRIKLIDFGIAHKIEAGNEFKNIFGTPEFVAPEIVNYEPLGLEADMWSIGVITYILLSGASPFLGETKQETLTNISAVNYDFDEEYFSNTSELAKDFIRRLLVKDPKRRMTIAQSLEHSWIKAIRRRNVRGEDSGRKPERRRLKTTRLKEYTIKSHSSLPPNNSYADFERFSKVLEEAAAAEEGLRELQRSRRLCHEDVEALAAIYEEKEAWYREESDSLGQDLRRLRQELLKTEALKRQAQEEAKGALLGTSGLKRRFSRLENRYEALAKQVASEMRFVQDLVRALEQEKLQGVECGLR", "assay": "Kinase selectivity, P33-radiolabeled assay", "format": "biochemical", "conditions": "10 μM ATP", "experimental": "as §1"}, "[2]": {"conditions": "read-out: % Enzyme Activity (relative to DMSO controls) AVG"}, "[3]": {"conditions": "read-out: % Enzyme Activity (relative to DMSO controls) Data 1"}, "[4]": {"conditions": "read-out: % Enzyme Activity (relative to DMSO controls) Data 2"}, "[5]": {"conditions": "10 uM, 10 μM ATP, read-out: % Enzyme Activity (relative to DMSO controls) Data 2"}},
  "note": "pIC50: −log10 of the molar value. Read-outs that look alike come from different tables or passages of the source.",
  "data": [
    {"smiles": "CC(C)(C)C(=O)N1N=CC[C@H]1c1ccccc1", "note": "[GSK′963]", "values": [
      {"measurement": "pIC50", "setting": "[1]", "result": 8.52},
      {"measurement": "remaining activity at 10 µM", "setting": "ALK; [2]", "result": 101, "unit": "%"},
      {"measurement": "remaining activity at 10 µM", "setting": "ALK; [3]", "result": 97.3, "unit": "%"},
      {"measurement": "remaining activity at 10 µM", "setting": "ALK; [4]", "result": 105, "unit": "%"},
      {"measurement": "remaining activity at 10 µM", "setting": "CAMK1a; [2]", "result": 96.3, "unit": "%"},
      {"measurement": "remaining activity at 10 µM", "setting": "CAMK1a; [3]", "result": 99.3, "unit": "%"},
      {"measurement": "remaining activity at 10 µM", "setting": "CAMK1a; [4]", "result": 93.3, "unit": "%"},
      {"measurement": "remaining activity at 10 µM", "setting": "CK1epsilon; [2]", "result": 93.4, "unit": "%"},
      {"measurement": "remaining activity at 10 µM", "setting": "CK1epsilon; [3]", "result": 96.7, "unit": "%"},
      {"measurement": "remaining activity at 10 µM", "setting": "CK1epsilon; [4]", "result": 90.2, "unit": "%"},
      {"measurement": "remaining activity at 10 µM", "setting": "CLK4; [2]", "result": 100, "unit": "%"},
      {"measurement": "remaining activity at 10 µM", "setting": "CLK4; [3]", "result": 101, "unit": "%"},
      {"measurement": "remaining activity at 10 µM", "setting": "CLK4; [4]", "result": 99.8, "unit": "%"},
      {"measurement": "remaining activity at 10 µM", "setting": "FGFR3; [2]", "result": 99.4, "unit": "%"},
      {"measurement": "remaining activity at 10 µM", "setting": "FGFR3; [3]", "result": 103, "unit": "%"},
      {"measurement": "remaining activity at 10 µM", "setting": "FGFR3; [4]", "result": 95.7, "unit": "%"},
      {"measurement": "remaining activity at 10 µM", "setting": "MEK2; 10 uM, 10 μM ATP, read-out: % Enzyme Activity (relative to DMSO controls) AVG", "result": 102, "unit": "%"},
      {"measurement": "remaining activity at 10 µM", "setting": "MEK2; [5]", "result": 103, "unit": "%"},
      {"measurement": "remaining activity at 10 µM", "setting": "MEK2; [3]", "result": 101, "unit": "%"},
      {"measurement": "remaining activity at 10 µM", "setting": "NEK2; [2]", "result": 107, "unit": "%"},
      {"measurement": "remaining activity at 10 µM", "setting": "NEK2; [3]", "result": 108, "unit": "%"},
      {"measurement": "remaining activity at 10 µM", "setting": "NEK2; [4]", "result": 106, "unit": "%"},
      {"measurement": "remaining activity at 10 µM", "setting": "PAK5; [2]", "result": 124, "unit": "%"},
      {"measurement": "remaining activity at 10 µM", "setting": "PAK5; [3]", "result": 119, "unit": "%"},
      {"measurement": "remaining activity at 10 µM", "setting": "PAK5; [4]", "result": 128, "unit": "%"},
      {"measurement": "remaining activity at 10 µM", "setting": "PDK1/PDPK1; [2]", "result": 109, "unit": "%"},
      {"measurement": "remaining activity at 10 µM", "setting": "PDK1/PDPK1; [3]", "result": 108, "unit": "%"},
      {"measurement": "remaining activity at 10 µM", "setting": "PDK1/PDPK1; [4]", "result": 110, "unit": "%"},
      {"measurement": "remaining activity at 10 µM", "setting": "ROS/ROS1; 10 uM, 10 μM ATP, read-out: % Enzyme Activity (relative to DMSO controls) Data 1", "result": 102, "unit": "%"},
      {"measurement": "remaining activity at 10 µM", "setting": "ROS/ROS1; [5]", "result": 100, "unit": "%"},
      {"measurement": "remaining activity at 10 µM", "setting": "ROS/ROS1; [2]", "result": 101, "unit": "%"},
      {"measurement": "remaining activity at 10 µM", "setting": "STK33; [2]", "result": 103, "unit": "%"},
      {"measurement": "remaining activity at 10 µM", "setting": "STK33; [3]", "result": 104, "unit": "%"},
      {"measurement": "remaining activity at 10 µM", "setting": "STK33; [4]", "result": 102, "unit": "%"},
      {"measurement": "remaining activity at 10 µM", "setting": "ZIPK/DAPK3; [2]", "result": 111, "unit": "%"},
      {"measurement": "remaining activity at 10 µM", "setting": "ZIPK/DAPK3; [3]", "result": 118, "unit": "%"},
      {"measurement": "remaining activity at 10 µM", "setting": "ZIPK/DAPK3; [4]", "result": 104, "unit": "%"}
    ]}
  ]
}
